Columns and labels:
[1] = pKa and ionization of the terminal phosphate/phosphonate; format: physicochemical; settings: pH 7.4, terminal phosphate/phosphonate
human NPP3 = target: T1, human NPP3 (Homo sapiens, UniProt O14638); assay: NPP3 hydrolysis assay; format: in vitro ADME; settings: 100 μM ATP (100% reference)
T1 sequence (O14638 1-875): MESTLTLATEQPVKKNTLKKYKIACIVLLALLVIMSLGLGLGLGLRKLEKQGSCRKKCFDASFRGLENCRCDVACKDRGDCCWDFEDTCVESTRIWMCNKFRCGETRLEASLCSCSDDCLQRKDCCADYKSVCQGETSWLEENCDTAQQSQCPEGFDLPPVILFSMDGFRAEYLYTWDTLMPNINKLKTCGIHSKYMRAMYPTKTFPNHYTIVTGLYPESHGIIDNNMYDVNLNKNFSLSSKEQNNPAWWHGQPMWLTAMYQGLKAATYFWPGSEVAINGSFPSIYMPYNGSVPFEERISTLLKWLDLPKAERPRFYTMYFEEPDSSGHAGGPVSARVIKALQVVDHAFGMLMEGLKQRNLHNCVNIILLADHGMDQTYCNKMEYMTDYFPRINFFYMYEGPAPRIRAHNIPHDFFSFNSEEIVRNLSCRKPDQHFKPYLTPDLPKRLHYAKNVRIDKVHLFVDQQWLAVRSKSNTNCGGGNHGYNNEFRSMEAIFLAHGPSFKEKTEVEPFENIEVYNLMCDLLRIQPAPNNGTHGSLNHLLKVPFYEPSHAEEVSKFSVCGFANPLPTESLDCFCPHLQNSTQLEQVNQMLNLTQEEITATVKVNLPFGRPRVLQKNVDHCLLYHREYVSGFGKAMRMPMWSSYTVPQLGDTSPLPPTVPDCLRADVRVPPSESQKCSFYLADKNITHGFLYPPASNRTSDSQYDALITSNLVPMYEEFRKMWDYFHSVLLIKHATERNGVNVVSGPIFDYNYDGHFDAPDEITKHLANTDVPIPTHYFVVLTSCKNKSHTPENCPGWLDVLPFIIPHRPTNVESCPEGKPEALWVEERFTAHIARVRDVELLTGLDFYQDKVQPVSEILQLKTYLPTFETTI

rabbit IOP = settings: topically applied to New Zealand white rabbits; cited from earlier work

For `Nc1ncnc2c1ncn2[C@@H]1O[C@H](COP(=O)(O)OP(=O)(O)OP(=O)(O)O)[C@@H](O)[C@H]1O` [ATP], the “fraction ionized at physiological pH” value [1] is given as 91%, the “hydrolysis rate by NPP3” value (human NPP3) is given as 245 nmol nucl·min^−1·mg protein^−1 and the “effect on IOP (increase or reduction)” value (rabbit IOP) is given as “reduced”.

Reference: publication PMC4358770 (Journal of medicinal chemistry, 2010)
